Species on record: Rattus norvegicus
Assay: DrugMatrix - Regimen: Daily Repeat
Assay type: toxicity, organism-based, Sprague-Dawley
Parameters: regimen Daily Repeat, gender Male, age 6-8 weeks
Settings: in vivo, po, route oral GAVAGE, dose level High; for ABSOLUTE BASOPHIL / ABSOLUTE EOSINOPHIL / ABSOLUTE LYMPHOCYTE / ABSOLUTE MONOCYTE / ABSOLUTE SEGMENTED NEUTROPHIL / BASOPHIL / EOSINOPHIL / ERYTHROCYTE COUNT / HEMATOCRIT / HEMOGLOBIN / LEUKOCYTE COUNT / LYMPHOCYTE / MEAN CORPUSCULAR HEMOGLOBIN / MEAN CORPUSCULAR HEMOGLOBIN CONCENTRATION / MEAN CORPUSCULAR VOLUME / MONOCYTE / NEUTROPHIL / NUCLEATED RED BLOOD CELLS / PLATELET COUNT: tissue Blood; for ALANINE AMINOTRANSFERASE / ALBUMIN / ALKALINE PHOSPHATASE / ASPARTATE AMINOTRANSFERASE / BLOOD UREA NITROGEN / CARBON DIOXIDE / CHLORIDE / CHOLESTEROL / CREATINE PHOSPHOKINASE / CREATININE / GLUCOSE / LACTATE DEHYDROGENASE / LIPASE / PHOSPHORUS / POTASSIUM / SODIUM / TOTAL BILIRUBIN / TOTAL PROTEIN / URIC ACID: tissue Plasma
[1] = 1200 mg/kg, 72 h, time 3 day, vehicle .5 % CMC
[2] = 1200 mg/kg, 120 h, time 5 day, vehicle .5 % CMC
[3] = 2500 mg/kg, 72 h, time 3 day, vehicle 100 % WATER
[4] = 2500 mg/kg, 120 h, time 5 day, vehicle 100 % WATER

## O=C(C1CCCCC1)N1CC(=O)N2CCc3ccccc3C2C1 (configuration not stated) [PRAZIQUANTEL]
[1]
  ABSOLUTE BASOPHIL: 0 CELLS/uL
  ABSOLUTE EOSINOPHIL: 48 CELLS/uL
  ABSOLUTE LYMPHOCYTE: 14636 CELLS/uL
  ABSOLUTE MONOCYTE: 440 CELLS/uL
  ABSOLUTE SEGMENTED NEUTROPHIL: 1476 CELLS/uL
  BASOPHIL: 0%
  EOSINOPHIL: 0.33%
  ERYTHROCYTE COUNT: 6.1 x10E6/uL
  HEMATOCRIT: 37.8%
  HEMOGLOBIN: 14.07 G/DL
  LEUKOCYTE COUNT: 16.6 x10E3/uL
  LYMPHOCYTE: 88%
  MEAN CORPUSCULAR HEMOGLOBIN: 23.1 pg
  MEAN CORPUSCULAR HEMOGLOBIN CONCENTRATION: 37.23 G/DL
  MEAN CORPUSCULAR VOLUME: 62.03 fL
  MONOCYTE: 2.67%
  NEUTROPHIL: 9%
  NUCLEATED RED BLOOD CELLS: 0 /100WBC
  PLATELET COUNT: 1207 x10E3/uL
  ALANINE AMINOTRANSFERASE: 78.33 u/L
  ALBUMIN: 4.17 G/DL
  ALKALINE PHOSPHATASE: 420.67 u/L
  ASPARTATE AMINOTRANSFERASE: 106 u/L
  BLOOD UREA NITROGEN: 16.67 mg/dL
  CARBON DIOXIDE: 21.67 mmol/L
  CHLORIDE: 106 MEQ/L
  CHOLESTEROL: 113 mg/dL
  CREATINE PHOSPHOKINASE: 468 u/L
  CREATININE: 0.27 mg/dL
  GLUCOSE: 155.33 mg/dL
  LACTATE DEHYDROGENASE: 155.67 u/L
  LIPASE: 12.33 u/L
  PHOSPHORUS: 12.53 mg/dL
  POTASSIUM: 6.11 MEQ/L
  SODIUM: 146.03 MEQ/L
  TOTAL BILIRUBIN: 0.17 mg/dL
  TOTAL PROTEIN: 5.9 G/DL
  URIC ACID: 1.8 mg/dL
[2]
  ABSOLUTE BASOPHIL: 0 CELLS/uL
  ABSOLUTE EOSINOPHIL: 0 CELLS/uL
  ABSOLUTE LYMPHOCYTE: 15049.33 CELLS/uL
  ABSOLUTE MONOCYTE: 624 CELLS/uL
  ABSOLUTE SEGMENTED NEUTROPHIL: 1126.67 CELLS/uL
  BASOPHIL: 0%
  EOSINOPHIL: 0%
  ERYTHROCYTE COUNT: 6.07 x10E6/uL
  HEMATOCRIT: 37.33%
  HEMOGLOBIN: 14 G/DL
  LEUKOCYTE COUNT: 16.8 x10E3/uL
  LYMPHOCYTE: 89.67%
  MEAN CORPUSCULAR HEMOGLOBIN: 23.07 pg
  MEAN CORPUSCULAR HEMOGLOBIN CONCENTRATION: 37.53 G/DL
  MEAN CORPUSCULAR VOLUME: 61.5 fL
  MONOCYTE: 3.67%
  NEUTROPHIL: 6.67%
  NUCLEATED RED BLOOD CELLS: 0 /100WBC
  PLATELET COUNT: 1413.33 x10E3/uL
  ALANINE AMINOTRANSFERASE: 57.67 u/L
  ALBUMIN: 4.2 G/DL
  ALKALINE PHOSPHATASE: 351.33 u/L
  ASPARTATE AMINOTRANSFERASE: 77 u/L
  BLOOD UREA NITROGEN: 17.67 mg/dL
  CARBON DIOXIDE: 27.33 mmol/L
  CHLORIDE: 103.67 MEQ/L
  CHOLESTEROL: 102.33 mg/dL
  CREATINE PHOSPHOKINASE: 250.67 u/L
  CREATININE: 0.22 mg/dL
  GLUCOSE: 153 mg/dL
  LACTATE DEHYDROGENASE: 208.67 u/L
  LIPASE: 12.33 u/L
  PHOSPHORUS: 13.13 mg/dL
  POTASSIUM: 7.47 MEQ/L
  SODIUM: 145.47 MEQ/L
  TOTAL BILIRUBIN: 0.17 mg/dL
  TOTAL PROTEIN: 6.33 G/DL
  URIC ACID: 2.3 mg/dL

## CCN(CC)CCOC(=O)c1ccc(N)cc1 [PROCAINE]
[3]
  ABSOLUTE BASOPHIL: 0 CELLS/uL
  ABSOLUTE EOSINOPHIL: 0 CELLS/uL
  ABSOLUTE LYMPHOCYTE: 12849.67 CELLS/uL
  ABSOLUTE MONOCYTE: 127.33 CELLS/uL
  ABSOLUTE SEGMENTED NEUTROPHIL: 789.67 CELLS/uL
  BASOPHIL: 0%
  EOSINOPHIL: 0%
  ERYTHROCYTE COUNT: 5.53 x10E6/uL
  HEMATOCRIT: 34.97%
  HEMOGLOBIN: 13.83 G/DL
  LEUKOCYTE COUNT: 13.77 x10E3/uL
  LYMPHOCYTE: 93.33%
  MEAN CORPUSCULAR HEMOGLOBIN: 24.97 pg
  MEAN CORPUSCULAR HEMOGLOBIN CONCENTRATION: 39.63 G/DL
  MEAN CORPUSCULAR VOLUME: 63.1 fL
  MONOCYTE: 1%
  NEUTROPHIL: 5.67%
  NUCLEATED RED BLOOD CELLS: 0 /100WBC
  PLATELET COUNT: 1276.67 x10E3/uL
  ALANINE AMINOTRANSFERASE: 52.33 u/L
  ALBUMIN: 4.3 G/DL
  ALKALINE PHOSPHATASE: 353.67 u/L
  ASPARTATE AMINOTRANSFERASE: 121.67 u/L
  BLOOD UREA NITROGEN: 13.67 mg/dL
  CARBON DIOXIDE: 25.33 mmol/L
  CHLORIDE: 103.33 MEQ/L
  CHOLESTEROL: 42.33 mg/dL
  CREATINE PHOSPHOKINASE: 550.67 u/L
  CREATININE: 0.21 mg/dL
  GLUCOSE: 173 mg/dL
  LACTATE DEHYDROGENASE: 675.33 u/L
  LIPASE: 9 u/L
  PHOSPHORUS: 14.53 mg/dL
  POTASSIUM: 7.06 MEQ/L
  SODIUM: 146.03 MEQ/L
  TOTAL BILIRUBIN: 0.17 mg/dL
  TOTAL PROTEIN: 5.9 G/DL
  URIC ACID: 2.57 mg/dL
[4]
  ABSOLUTE BASOPHIL: 0 CELLS/uL
  ABSOLUTE EOSINOPHIL: 0 CELLS/uL
  ABSOLUTE LYMPHOCYTE: 14457.33 CELLS/uL
  ABSOLUTE MONOCYTE: 61 CELLS/uL
  ABSOLUTE SEGMENTED NEUTROPHIL: 915 CELLS/uL
  BASOPHIL: 0%
  EOSINOPHIL: 0%
  ERYTHROCYTE COUNT: 6.15 x10E6/uL
  HEMATOCRIT: 37.43%
  HEMOGLOBIN: 14.7 G/DL
  LEUKOCYTE COUNT: 15.43 x10E3/uL
  LYMPHOCYTE: 93.33%
  MEAN CORPUSCULAR HEMOGLOBIN: 23.93 pg
  MEAN CORPUSCULAR HEMOGLOBIN CONCENTRATION: 39.3 G/DL
  MEAN CORPUSCULAR VOLUME: 60.87 fL
  MONOCYTE: 0.33%
  NEUTROPHIL: 6.33%
  NUCLEATED RED BLOOD CELLS: 0 /100WBC
  PLATELET COUNT: 1379 x10E3/uL
  ALANINE AMINOTRANSFERASE: 40 u/L
  ALBUMIN: 4.73 G/DL
  ALKALINE PHOSPHATASE: 323.33 u/L
  ASPARTATE AMINOTRANSFERASE: 94 u/L
  BLOOD UREA NITROGEN: 17 mg/dL
  CARBON DIOXIDE: 26 mmol/L
  CHLORIDE: 101.67 MEQ/L
  CHOLESTEROL: 33.67 mg/dL
  CREATINE PHOSPHOKINASE: 281 u/L
  CREATININE: 0.24 mg/dL
  GLUCOSE: 166.67 mg/dL
  LACTATE DEHYDROGENASE: 198.33 u/L
  LIPASE: 9.67 u/L
  PHOSPHORUS: 12.67 mg/dL
  POTASSIUM: 7.55 MEQ/L
  SODIUM: 143.33 MEQ/L
  TOTAL BILIRUBIN: 0.2 mg/dL
  TOTAL PROTEIN: 6.67 G/DL
  URIC ACID: 2 mg/dL
